In brackets after ≈: the same amount, converted by molar mass.

For one assay, the system named is Escherichia coli ATCC 25922. The assay is described as follows: Minimal Inhibitory Concentration (MIC) determination, broth microdilution (CLSI M07-A10). The format is cell-based. The conditions noted are these: Escherichia coli, ATCC25922, read-out: Escherichia coli growth inhibition MIC, strain Escherichia coli ATCC 25922, 18-24 hours at 35±2° C., lowest concentration for complete growth inhibition (no visible growth). On the procedure: Minimal Inhibitory Concentration (MIC) Determination:
The MIC of antibacterial compounds against multiple species and strains was determined using the broth microdilution method according to M07-A10 Clinical and Laboratory Standards Institute (CLSI) guidelines, using the appropriate broth medium. In short, the compound plates were prepared by dispensing 100 μL of each stock solution in the first well of a 96 well microtiter plate (MTP) at a concentration 100-fold higher than the final concentration desired in broth. Eleven serial 2-fold dilutions of the highest concentration were made in DMSO for new compounds and in water (or appropriate solution) for reference compounds [2]. 1 μL of each well was transferred in a new MTP, which served as the test plate by subsequent inoculation. This bacterial suspension was prepared from strains that were first sub-cultured on agar plates and incubated for 18-24 hours as appropriate. Following incubation, the inoculum was prepared from isolated colonies and adjusted to 0.5 McFarland turbidity standard (1 to 2×10^8 Colony Forming Units (CFU)/mL) in 0.9% saline. The bacterial suspension was then diluted 1:200 in appropriate sterile medium and within 15 minutes 100 μL/well were dispensed. Negative controls (lack of bacterial cells) and growth control wells (lack of compound) were included in all plates. MTPs were incubated for 18-24 hours at 35±2° C. in ambient air. The MIC value of each compound, expressed as μg/mL, was determined as the lowest concentration required for complete growth inhibition (no visible growth). • [1] CLSI (2015) Methods for dilution antimicrobial susceptibility tests for bacteria that grow aerobically; Approved Standard, Tenth Edition. CLSI Document M7-A10 (ISBN 1-56238-987-4). Wayne, PA: Clinical and Laboratory Standards Institute, 19087, USA. • [2] CLSI (2017) Performance Standards for Antimicrobial Susceptibility Testing; Twenty-Fifth Informational Supplement. CLSI Document M100-S27, CLSI, Wayne, Pennsylvania 19087, USA.
Table 1 provides the Minimal Inhibitory Concentrations (MIC) in micrograms per millilitre of the compounds of present invention obtained against the strain Escherichia coli ATCC 25922.
`O=C1COc2ncc(N3CC4(CCN(CC5Cc6cc7nnn(C8CNC8)c7c(F)c6C5)CC4)OC3=O)nc2N1` (single isomer, unassigned) [Example 113, formic acid]: the MIC stood at 0.125 µg/mL (≈ 0.227 µM).

Staying with this assay, now noted: Escherichia coli, ATCC25922, strain Escherichia coli ATCC 25922, 18-24 hours at 35±2° C., lowest concentration for complete growth inhibition (no visible growth), read-out: Escherichia coli growth inhibition MIC.
As for `O=C1COc2ncc(N3CC4(CCN(CC5Cc6cc7nc([C@@H]8CCN8)oc7c(F)c6C5)CC4)OC3=O)nc2N1` (single isomer, unassigned) [Example 106], the MIC came to 0.125 µg/mL (≈ 0.227 µM).
Still for that read-out and setting: next, `O=C1COc2ncc(N3CC4(CCN(CC5Cc6cc7nc([C@H]8CCN8)oc7c(F)c6C5)CC4)OC3=O)nc2N1` (single isomer, unassigned) [Example 108]: 0.25 µg/mL (≈ 0.455 µM).
On the same count and under the same terms, as for `O=C1COc2ncc(N3CC4(CCN(CC5Cc6cc7nn(C8CNC8)nc7c(F)c6C5)CC4)OC3=O)nc2N1` (single isomer, unassigned) [Example 109, 6-[2-oxo-8-[[2-(azetidin-3-yl)-8-fluoro-6,7-dihydro-5H-cyclopenta[f]benzotriazol-6-yl]methyl]-1-oxa-3,8-diazaspiro[4.5]decan-3-yl]-4H-pyrazino[2,3-b][1,4]oxazin-3-one], the figure is 0.5 µg/mL (≈ 0.91 µM); as for `O=C1COc2ccc(N3CC4(CCN(CC5Cc6cc7nc(C8CNC8)oc7c(F)c6C5)CC4)OC3=O)nc2N1` (single isomer, unassigned) [Example 111, 6-[8-[[2-(azetidin-3-yl)-8-fluoro-6,7-dihydro-5H-cyclopenta[f][1,3]benzoxazol-6-yl]methyl]-2-oxo-1-oxa-3,8-diazaspiro[4.5]decan-3-yl]-4H-pyrido[3,2-b][1,4]oxazin-3-one], 0.5 µg/mL (≈ 0.911 µM); as for `O=C1COc2ncc(N3CC4(CCN(CC5Cc6cc7nnn(C8CNC8)c7c(F)c6C5)CC4)OC3=O)nc2N1.O=CO` (single isomer, unassigned) [Example 114], 0.25 µg/mL.
Same read-out and setting: next, `O=C1COc2ncc(N3CC4(CCN(CC5Cc6cc7c(nnn7C7CNC7)c(F)c6C5)CC4)OC3=O)nc2N1.O=CO` (single isomer, unassigned) [Example 115, 6-[2-oxo-8-[[3-(azetidin-3-yl)-8-fluoro-6,7-dihydro-5H-cyclopenta[f]benzotriazol-6-yl]methyl]-1-oxa-3,8-diazaspiro[4.5]decan-3-yl]-4H-pyrazino[2,3-b][1,4]oxazin-3-one; formic acid]: 0.5 µg/mL; `CNCCn1nnc2c(F)c3c(c(F)c21)CC(CN1CCC2(CC1)CN(c1cnc4c(n1)NC(=O)CO4)C(=O)O2)C3` (single isomer, unassigned) [Example 118, 6-[2-oxo-8-[[4,8-difluoro-1-[2-(methylamino)ethyl]-6,7-dihydro-5H-cyclopenta[f]benzotriazol-6-yl]methyl]-1-oxa-3,8-diazaspiro[4.5]decan-3-yl]-4H-pyrazino[2,3-b][1,4]oxazin-3-one]: 0.125 µg/mL (≈ 0.219 µM).
As to `O=C1COc2ncc(N3CC4(CCN(CC5Cc6c(c(F)c7c(nnn7C7CNC7)c6F)C5)CC4)OC3=O)nc2N1.O=CO` (single isomer, unassigned) [Example 120, 6-[8-[[1-(azetidin-3-yl)-4,8-difluoro-6,7-dihydro-5H-cyclopenta[f]benzotriazol-6-yl]methyl]-2-oxo-1-oxa-3,8-diazaspiro[4.5]decan-3-yl]-4H-pyrazino[2,3-b][1,4]oxazin-3-one; formic acid], the MIC came out at 0.25 µg/mL.
Same read-out and setting: next, `O=C1COc2ncc(N3CC4(CCN(CC5Cc6c(c(F)c7c(nnn7CCNC7CC7)c6F)C5)CC4)OC3=O)nc2N1.O=CO` (single isomer, unassigned) [Example 124, 6-[8-[[1-[2-(Cyclopropylamino)ethyl]-4,8-difluoro-6,7-dihydro-5H-cyclopenta[f]benzotriazol-6-yl]methyl]-2-oxo-1-oxa-3,8-diazaspiro[4.5]decan-3-yl]-4H-pyrazino[2,3-b][1,4]oxazin-3-one;formic acid]: 0.5 µg/mL.
Consider `CNCCn1cnc2c(F)c3c(c(F)c21)CC(CN1CCC2(CC1)CN(c1cnc4c(n1)NC(=O)CO4)C(=O)O2)C3` (single isomer, unassigned) [Example 126, 6-[2-oxo-8-[[4,8-difluoro-1-[2-(methylamino)ethyl]-6,7-dihydro-5H-cyclopenta[f]benzimidazol-6-yl]methyl]-1-oxa-3,8-diazaspiro[4.5]decan-3-yl]-4H-pyrazino[2,3-b][1,4]oxazin-3-one], for which the MIC was 0.25 µg/mL (≈ 0.44 µM).
Still for that read-out and setting: next, `C[C@H](N)Cn1nnc2c(F)c3c(c(F)c21)CC(CN1CCC2(CC1)CN(c1cnc4c(n1)NC(=O)CO4)C(=O)O2)C3.Cl` (single isomer, unassigned) [Example 130]: 0.25 µg/mL.

The assay is the same for the next values; noted with them: strain Escherichia coli ATCC 25922, 18-24 hours at 35±2° C., lowest concentration for complete growth inhibition (no visible growth).
For the compound `NCc1nc2cc3c(c(F)c2o1)CC(CN1CCC2(CC1)CN(c1cnc4c(n1)NC(=O)CO4)C(=O)O2)C3` (single isomer, unassigned) [Example 105, 6-[2-oxo-8-[[2-(aminomethyl)-8-fluoro-6,7-dihydro-5H-cyclopenta[f][1,3]benzoxazol-6-yl]methyl]-1-oxa-3,8-diazaspiro[4.5]decan-3-yl]-4H-pyrazino[2,3-b][1,4]oxazin-3-one], the “Escherichia coli growth inhibition MIC” value is 0.25 µg/mL.
Still for that read-out and setting: as for `O=C1COc2ncc(N3CC4(CCN(CC5Cc6cc7nn(C8CNC8)nc7c(F)c6C5)CC4)OC3=O)nc2N1` (single isomer, unassigned) [Example 110, 6-[2-oxo-8-[[2-(azetidin-3-yl)-8-fluoro-6,7-dihydro-5H-cyclopenta[f]benzotriazol-6-yl]methyl]-1-oxa-3,8-diazaspiro[4.5]decan-3-yl]-4H-pyrazino[2,3-b][1,4]oxazin-3-one], the figure is 1 µg/mL; as for `O=C1COc2ccc(N3CC4(CCN(CC5Cc6cc7nc(C8CNC8)oc7c(F)c6C5)CC4)OC3=O)nc2N1` (single isomer, unassigned) [Example 112, 6-[8-[[2-(azetidin-3-yl)-8-fluoro-6,7-dihydro-5H-cyclopenta[f][1,3]benzoxazol-6-yl]methyl]-2-oxo-1-oxa-3,8-diazaspiro[4.5]decan-3-yl]-4H-pyrido[3,2-b][1,4]oxazin-3-one], 0.5 µg/mL.
Still for that read-out and setting: next, `CNCCn1nnc2c(F)c3c(c(F)c21)CC(CN1CCC2(CC1)CN(c1cnc4c(n1)NC(=O)CO4)C(=O)O2)C3` (single isomer, unassigned) [Example 119, 6-[2-oxo-8-[[4,8-difluoro-1-[2-(methylamino)ethyl]-6,7-dihydro-5H-cyclopenta[f]benzotriazol-6-yl]methyl]-1-oxa-3,8-diazaspiro[4.5]decan-3-yl]-4H-pyrazino[2,3-b][1,4]oxazin-3-one]: 0.125 µg/mL.
Same read-out and setting: next, `O=C1COc2ncc(N3CC4(CCN(CC5Cc6c(c(F)c7c(nnn7CCNC7CC7)c6F)C5)CC4)OC3=O)nc2N1.O=CO` (single isomer, unassigned) [Example 125, 6-[8-[[1-[2-(Cyclopropylamino)ethyl]-4,8-difluoro-6,7-dihydro-5H-cyclopenta[f]benzotriazol-6-yl]methyl]-2-oxo-1-oxa-3,8-diazaspiro[4.5]decan-3-yl]-4H-pyrazino[2,3-b][1,4]oxazin-3-one;formic acid]: 0.25 µg/mL.
With `CNCCn1cnc2c(F)c3c(c(F)c21)CC(CN1CCC2(CC1)CN(c1cnc4c(n1)NC(=O)CO4)C(=O)O2)C3` (single isomer, unassigned) [Example 127], the “Escherichia coli growth inhibition MIC” value came out at 0.25 µg/mL.

The assay is the same for the next values; noted with them: strain Escherichia coli ATCC 25922, 18-24 hours at 35±2° C., lowest concentration for complete growth inhibition (no visible growth), formic acid.
`O=C1COc2ncc(N3CC4(CCN(CC5Cc6cc7c(nnn7C7CNC7)c(F)c6C5)CC4)OC3=O)nc2N1.O=CO` (single isomer, unassigned) [Example 116, 6-[2-oxo-8-[[3-(azetidin-3-yl)-8-fluoro-6,7-dihydro-5H-cyclopenta[f]benzotriazol-6-yl]methyl]-1-oxa-3,8-diazaspiro[4.5]decan-3-yl]-4H-pyrazino[2,3-b][1,4]oxazin-3-one; formic acid]: the “Escherichia coli growth inhibition MIC” value was 0.25 µg/mL.
`O=C1COc2ncc(N3CC4(CCN(CC5Cc6c(c(F)c7c(nnn7C7CNC7)c6F)C5)CC4)OC3=O)nc2N1.O=CO` (single isomer, unassigned) [Example 121, 6-[8-[[1-(azetidin-3-yl)-4,8-difluoro-6,7-dihydro-5H-cyclopenta[f]benzotriazol-6-yl]methyl]-2-oxo-1-oxa-3,8-diazaspiro[4.5]decan-3-yl]-4H-pyrazino[2,3-b][1,4]oxazin-3-one; formic acid]: the “Escherichia coli growth inhibition MIC” value came to 0.125 µg/mL.

The values above are taken from patent publication US20240252506A1 (Hoffmann-La Roche Inc., priority 2021, published 2024).
